Laboratory results: patent publication US8952024B2, “Herbicidal pyrimidone derivatives” (E I du Pont de Nemours and Company, priority 2009, dated 2015)

Tests used:
Experiment in all cases: Test D pre-/postemergence plant response
Type in all cases: in vivo
[1] = system: ragweed (common ragweed, Ambrosia elatior)
Procedure, shortened: (§1)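 Scores (0 no effect, 100 complete control) reflect visual assessment against untreated plants after 14 to 21 days. Treatments were pre- and postemergence sprays in solvent with surfactant.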

[2] = system: mallow (common mallow, Malva sylvestris)
Procedure, shortened: as §1

[3] = system: green foxtail (Setaria viridis)
Procedure, shortened: as §1

[4] = system: goosegrass (Eleusine indica)
Procedure, shortened: as §1

[5] = system: Russian thistle (Salsola kali)
Procedure, shortened: as §1

[6] = system: dallisgrass (Paspalum dilatatum)
Procedure, shortened: as §1

[7] = system: johnsongrass (Sorghum halepense)
Procedure, shortened: as §1

[8] = system: itchgrass (Rottboellia cochinchinensis)
Procedure, shortened: as §1

[9] = system: quackgrass (Elytrigia repens)
Procedure, shortened: as §1

[10] = system: sowthistle (common sowthistle, Sonchus oleraceous)
Procedure, shortened: as §1

[11] = system: purslane (common purslane, Portulaca oleracea)
Procedure, shortened: as §1

[12] = system: signalgrass (broadleaf signalgrass, Brachiaria platyphylla)
Procedure, shortened: as §1

[13] = system: guineagrass (Panicum maximum)
Procedure, shortened: as §1

[14] = system: barnyardgrass (Echinochloa crus-galli)
Procedure, shortened: as §1

[15] = system: bluegrass (annual bluegrass, Poa annua)
Procedure, shortened: as §1

[16] = system: nutsedge (purple nutsedge, Cyperus rotundus)
Procedure, shortened: as §1

[17] = Postemergence, 16 g ai/ha, scale 0 to 100
[18] = Postemergence, 31 g ai/ha, scale 0 to 100
[19] = Postemergence, 125 g ai/ha, scale 0 to 100 (0 no effect, 100 complete control)
[20] = Postemergence, 62 g ai/ha, scale 0 to 100 (0 no effect, 100 complete control)
[21] = Preemergence, 16 g ai/ha, scale 0 to 100, 0 no effect, 100 complete control
[22] = Preemergence, 31 g ai/ha, scale 0 to 100 (0 no effect, 100 complete control)
[23] = Preemergence, 125 g ai/ha, scale 0 to 100
[24] = Preemergence, 62 g ai/ha, scale 0 to 100
[25] = Postemergence, 31 g ai/ha, scale 0 to 100 (0 no effect, 100 complete control)

O=C1CCCC(O)=C1C(=O)c1cnc(C2CC2)n(-c2ccccc2)c1=O [Compound 87]
60: Plant response rating, Mallow [2, 18] | Plant response rating, Foxtail, Green [3, 19] | Plant response rating, Johnsongrass [7, 19] | Plant response rating, Signalgrass [12, 19] | Plant response rating, Signalgrass [12, 20] | Plant response rating, Barnyardgrass [14, 20]
20: Plant response rating, Johnsongrass [7, 17] | Plant response rating, Johnsongrass [7, 24] | Plant response rating, Itchgrass [8, 22] | Plant response rating, Itchgrass [8, 24] | Plant response rating, Itchgrass [8, 23] | Plant response rating, Signalgrass [12, 17] | Plant response rating, Guineagrass [13, 18] | Plant response rating, Guineagrass [13, 20] | Plant response rating, Bluegrass [15, 21] | Plant response rating, Bluegrass [15, 22] | Plant response rating, Nutsedge, Purple [16, 20]
10: Plant response rating, Foxtail, Green [3, 23] | Plant response rating, Purslane [11, 17] | Plant response rating, Guineagrass [13, 17] | Plant response rating, Nutsedge, Purple [16, 18]
65: Plant response rating, Goosegrass [4, 19] | Plant response rating, Goosegrass [4, 20]
25: Plant response rating, Dallisgrass [6, 17] | Plant response rating, Dallisgrass [6, 18] | Plant response rating, Purslane [11, 18] | Plant response rating, Bluegrass [15, 24]
70: Plant response rating, Ragweed [1, 17] | Plant response rating, Mallow [2, 19] | Plant response rating, Mallow [2, 20] | Plant response rating, Johnsongrass [7, 23] | Plant response rating, Purslane [11, 21] | Plant response rating, Barnyardgrass [14, 19]
75: Plant response rating, Russian Thistle [5, 22] | Plant response rating, Dallisgrass [6, 19] | Plant response rating, Signalgrass [12, 23] | Plant response rating, Guineagrass [13, 23] | Plant response rating, Nutsedge, Purple [16, 23]
30: Plant response rating, Ragweed [1, 21] | Plant response rating, Foxtail, Green [3, 18] | Plant response rating, Goosegrass [4, 17] | Plant response rating, Johnsongrass [7, 18] | Plant response rating, Itchgrass [8, 19] | Plant response rating, Itchgrass [8, 20] | Plant response rating, Signalgrass [12, 18] | Plant response rating, Guineagrass [13, 19]
95: Plant response rating, Ragweed [1, 20] | Plant response rating, Goosegrass [4, 24] | Plant response rating, Barnyardgrass [14, 23]
5: Plant response rating, Foxtail, Green [3, 17] | Plant response rating, Johnsongrass [7, 22] | Plant response rating, Quackgrass [9, 19] | Plant response rating, Barnyardgrass [14, 22] | Plant response rating, Nutsedge, Purple [16, 22]
100: Plant response rating, Mallow [2, 23] | Plant response rating, Goosegrass [4, 23] | Plant response rating, Russian Thistle [5, 23] | Plant response rating, Sowthistle [10, 19] | Plant response rating, Sowthistle [10, 22] | Plant response rating, Sowthistle [10, 23] | Plant response rating, Purslane [11, 22] | Plant response rating, Purslane [11, 24] | Plant response rating, Purslane [11, 23]
50: Plant response rating, Russian Thistle [5, 21] | Plant response rating, Dallisgrass [6, 20] | Plant response rating, Dallisgrass [6, 21] | Plant response rating, Dallisgrass [6, 22] | Plant response rating, Guineagrass [13, 24] | Plant response rating, Barnyardgrass [14, 25] | Plant response rating, Barnyardgrass [14, 24] | Plant response rating, Nutsedge, Purple [16, 19] | Plant response rating, Nutsedge, Purple [16, 24]
80: Plant response rating, Ragweed [1, 18] | Plant response rating, Mallow [2, 24] | Plant response rating, Dallisgrass [6, 24]
98: Plant response rating, Ragweed [1, 19] | Plant response rating, Ragweed [1, 22] | Plant response rating, Ragweed [1, 23] | Plant response rating, Dallisgrass [6, 23] | Plant response rating, Sowthistle [10, 18] | Plant response rating, Sowthistle [10, 20] | Plant response rating, Sowthistle [10, 21]
90: Plant response rating, Sowthistle [10, 17]
0: Plant response rating, Foxtail, Green [3, 21] | Plant response rating, Foxtail, Green [3, 22] | Plant response rating, Foxtail, Green [3, 24] | Plant response rating, Johnsongrass [7, 21] | Plant response rating, Itchgrass [8, 17] | Plant response rating, Itchgrass [8, 18] | Plant response rating, Itchgrass [8, 21] | Plant response rating, Quackgrass [9, 17] | Plant response rating, Quackgrass [9, 18] | Plant response rating, Quackgrass [9, 20] | Plant response rating, Quackgrass [9, 21] | Plant response rating, Quackgrass [9, 22] | Plant response rating, Quackgrass [9, 23] | Plant response rating, Signalgrass [12, 21] | Plant response rating, Signalgrass [12, 22] | Plant response rating, Guineagrass [13, 21] | Plant response rating, Guineagrass [13, 22] | Plant response rating, Barnyardgrass [14, 21] | Plant response rating, Bluegrass [15, 17] | Plant response rating, Bluegrass [15, 25] | Plant response rating, Bluegrass [15, 19] | Plant response rating, Bluegrass [15, 20] | Plant response rating, Nutsedge, Purple [16, 17] | Plant response rating, Nutsedge, Purple [16, 21]
35: Plant response rating, Foxtail, Green [3, 20] | Plant response rating, Goosegrass [4, 18] | Plant response rating, Goosegrass [4, 21] | Plant response rating, Goosegrass [4, 22] | Plant response rating, Russian Thistle [5, 19] | Plant response rating, Purslane [11, 19] | Plant response rating, Purslane [11, 20] | Plant response rating, Barnyardgrass [14, 17] | Plant response rating, Bluegrass [15, 23]
40: Plant response rating, Mallow [2, 17] | Plant response rating, Johnsongrass [7, 20]
